No end group written: not given here.
Key:
[1] = test system: pannexin-1 (Panx1) hemichannels (C6-Panx1 cells); test: High [K+]e-triggered ATP release in C6-Panx1 cells; type: cell-based; settings: [K+]e = 143 mM, carbenoxolone 10 μM, 30 min, 10Panx1 200 μM
[2] = target: Cx43 hemichannels (C6-Cx43 cells) (Homo sapiens, UniProt P17302); test: [Ca2+]i-triggered; type: cell-based
C6-Cx43 cells = settings: A23187 2.2 μM, 5 min; ref [19], [49]; cited from earlier work

Chain of Cx43 hemichannels (C6-Cx43 cells) (P17302 whole entry): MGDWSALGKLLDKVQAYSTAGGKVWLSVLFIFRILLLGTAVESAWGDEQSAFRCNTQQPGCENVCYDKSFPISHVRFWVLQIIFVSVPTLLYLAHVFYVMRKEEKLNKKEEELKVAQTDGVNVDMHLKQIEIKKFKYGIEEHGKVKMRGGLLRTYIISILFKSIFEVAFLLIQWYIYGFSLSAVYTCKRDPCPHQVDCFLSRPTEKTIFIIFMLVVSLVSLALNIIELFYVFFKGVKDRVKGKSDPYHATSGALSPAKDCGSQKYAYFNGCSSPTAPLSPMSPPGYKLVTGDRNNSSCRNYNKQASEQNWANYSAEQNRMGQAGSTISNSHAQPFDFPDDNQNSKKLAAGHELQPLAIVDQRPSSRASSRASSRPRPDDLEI

CC1(C)[C@@H](OC(=O)CCC(=O)O)CC[C@]2(C)[C@H]3C(=O)C=C4[C@@H]5C[C@@](C)(C(=O)O)CC[C@]5(C)CC[C@@]4(C)[C@]3(C)CC[C@@H]12 [carbenoxolone]
high [K+]e-triggered ATP release ([1]; n = 12): suppressed
high [K+]e-triggered ATP release ([1]; n = 12, listed as Cbx): blocked

CNc1ccc2oc(C[C@H]3O[C@@]4(CC[C@H]3C)O[C@H]([C@H](C)C(=O)c3ccc[nH]3)[C@H](C)C[C@H]4C)nc2c1C(=O)O [A23187]
[Ca2+]i-triggered ATP release ([2]; Ca2+ ionophore, 2.2 μM, 5 min, C6-Cx43 vs C6-pLTR, n = 12): triggered significant ATP release in C6-Cx43 but not in C6 cells stably transfected with the empty vector
transient elevation of [Ca2+]i (C6-Cx43 cells): ~ 500 nM

YGRKKRRQRRRKQIEIKKFK
IC50 [2]: ~7 µM

Reference: article PMC3666173 (Basic research in cardiology, 2012)
